# “And” between values parts separate entries of the source, which are not always exact repeats. Equal entries are not always repeated. Toxic doses and inconclusive results are not listed.
# Test system: BDF1 mice, B16 melanoma ip, median survival T/C
# Experiment: NCI In Vivo Anticancer Drug Screen. Data for tumor model B16 Melanoma (intraperitoneal) in B6D2F1 (BDF1) mice
# Details: endpoint: median survival time, higher = longer survival
# Procedure, shortened: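 The ratio T/C compares compound-treated mice with vehicle-treated controls, using survival or tumor size as the endpoint in a transplantable tumor model.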
# [1] = dose: 25.0 mg/kg/injection, schedule: Q01DX009 (ip), vehicle: saline with Tween-80
# [2] = dose: 50.0 mg/kg/injection, schedule: Q01DX009 (ip), vehicle: saline with Tween-80
# [3] = dose: 12.5 mg/kg/injection, schedule: Q01DX009 (ip), vehicle: saline
# [4] = dose: 25.0 mg/kg/injection, schedule: Q01DX009 (ip), vehicle: saline
# [5] = dose: 50.0 mg/kg/injection, schedule: Q01DX009 (ip), vehicle: saline
# [6] = dose: 100.0 mg/kg/injection, schedule: Q01DX009 (ip), vehicle: saline
# [7] = dose: 200.0 mg/kg/injection, schedule: Q01DX009 (ip), vehicle: saline
# [8] = dose: 100.0 mg/kg/injection, schedule: Q01DX009 (ip), vehicle: saline with Tween-80
# [9] = dose: 100.0 mg/kg/injection, schedule: Q04DX003 (ip), vehicle: saline with Tween-80
# [10] = dose: 200.0 mg/kg/injection, schedule: Q04DX003 (ip), vehicle: saline with Tween-80
# [11] = dose: 400.0 mg/kg/injection, schedule: Q04DX003 (ip), vehicle: saline with Tween-80
smiles,measurement,setting,value
CC(=O)NC(CCC(=O)C=[N+]=N)C(=O)O (centres undefined),T/C,"dose: 0.01 mg/kg/injection, schedule: Q01DX009 (ip), vehicle: water",113 % of control
same,T/C,"dose: 0.05 mg/kg/injection, schedule: Q01DX009 (ip), vehicle: water",102 % of control
same,T/C,"dose: 0.1 mg/kg/injection, schedule: Q01DX009 (ip), vehicle: other",106 % of control
same,T/C,"dose: 0.1 mg/kg/injection, schedule: Q01DX009 (ip), vehicle: water",86 % of control
same,T/C,"dose: 0.2 mg/kg/injection, schedule: Q01DX009 (ip), vehicle: other",90 % of control
same,T/C,"dose: 10.0 mg/kg/injection, schedule: Q04DX003 (ip), vehicle: other",109 % of control
same,T/C,"dose: 15.0 mg/kg/injection, schedule: Q04DX003 (ip), vehicle: water",123 % of control
same,T/C,"dose: 20.0 mg/kg/injection, schedule: Q04DX003 (ip), vehicle: other",100 % of control
same,T/C,"dose: 30.0 mg/kg/injection, schedule: Q04DX003 (ip), vehicle: water",121 % of control
same,T/C,"dose: 40.0 mg/kg/injection, schedule: Q04DX003 (ip), vehicle: other",106 % of control
same,T/C,"dose: 60.0 mg/kg/injection, schedule: Q04DX003 (ip), vehicle: water",118 % of control
CC(OCc1ccccc1)C(NC(=O)OC(C)(C)C)C(=O)O (centres undefined),T/C,"dose: 6.25 mg/kg/injection, schedule: Q01DX009 (ip), vehicle: saline with Tween-80",97 % of control
same,T/C,"dose: 12.5 mg/kg/injection, schedule: Q01DX009 (ip), vehicle: saline with Tween-80",98 % of control
same,T/C,[1],102 % of control
same,T/C,[2],88 % of control and 95 % of control
N#Cc1cccnc1.NCCNCCN.[Br-].[Pt+4],T/C,[3],100 % of control
same,T/C,[4],94 % of control
same,T/C,[5],99 % of control
same,T/C,[6],99 % of control
same,T/C,[7],89 % of control
Cc1cccc(C2=NCCN2)c1C,T/C,"dose: 5.0 mg/kg/injection, schedule: Q04DX003 (ip), vehicle: saline with Tween-80",116 % of control
same,T/C,"dose: 20.0 mg/kg/injection, schedule: Q04DX003 (ip), vehicle: saline with Tween-80",116 % of control
c1ccc([B-]2([C+]3CCCCC3)N3CCCCC3C3CCCCN32)cc1 (centres undefined),T/C,"dose: 12.5 mg/kg/injection, schedule: Q01DX009 (ip), vehicle: Klucel (hydroxypropylcellulose) (HPC)",106 % of control
same,T/C,"dose: 25.0 mg/kg/injection, schedule: Q01DX009 (ip), vehicle: Klucel (hydroxypropylcellulose) (HPC)",93 % of control
CC(O)C(NC(=O)OC(C)(C)C)C(=O)O (centres undefined),T/C,[7],105 % of control
same,T/C,"dose: 400.0 mg/kg/injection, schedule: Q01DX009 (ip), vehicle: saline",93 % of control
Cc1cc(C)c(NC(=O)Nc2ccccc2C)c(C)c1,T/C,"dose: 25.0 mg/kg/injection, schedule: Q04DX003 (ip), vehicle: Klucel (hydroxypropylcellulose) (HPC)",102 % of control
same,T/C,"dose: 50.0 mg/kg/injection, schedule: Q04DX003 (ip), vehicle: Klucel (hydroxypropylcellulose) (HPC)",97 % of control
same,T/C,"dose: 100.0 mg/kg/injection, schedule: Q04DX003 (ip), vehicle: Klucel (hydroxypropylcellulose) (HPC)",90 % of control
CCCCC(=O)OCC(=O)[C@]1(O)Cc2c(O)c3c(c(O)c2[C@@H](OC2CC(NC(=O)C(F)(F)F)C(O)C(C)O2)C1)C(=O)c1c(OC)cccc1C3=O (some centres undefined),T/C,"dose: 7.78 mg/kg/injection, schedule: Q01DX004 (ip), vehicle: other",106 % of control
same,T/C,"dose: 9.38 mg/kg/injection, schedule: Q01DX001 (ip), vehicle: clinical formulation",111 % of control
same,T/C,"dose: 13.0 mg/kg/injection, schedule: Q01DX004 (ip), vehicle: other",115 % of control
same,T/C,"dose: 21.6 mg/kg/injection, schedule: Q01DX004 (ip), vehicle: other",122 % of control
same,T/C,"dose: 32.0 mg/kg/injection, schedule: Q01DX009 (ip), vehicle: distilled water + Tween-80",180 % of control
same,T/C,"dose: 36.0 mg/kg/injection, schedule: Q01DX004 (ip), vehicle: other",122 % of control
same,T/C,"dose: 64.0 mg/kg/injection, schedule: Q01DX009 (ip), vehicle: distilled water + Tween-80",158 % of control
same,T/C,"dose: 75.0 mg/kg/injection, schedule: Q01DX001 (ip), vehicle: clinical formulation",191 % of control
same,T/C,"dose: 128.0 mg/kg/injection, schedule: Q01DX009 (ip), vehicle: distilled water + Tween-80",288 % of control
same,T/C,"dose: 150.0 mg/kg/injection, schedule: Q01DX001 (ip), vehicle: clinical formulation",169 % of control and 205 % of control
CCC(=O)O[C@H]1CC[C@H]2[C@@H]3[C@@H](C)CC4=CC(=O)CC[C@]4(C)[C@H]3CC[C@]12C,T/C,[1],98 % of control
same,T/C,[2],91 % of control
same,T/C,[8],87 % of control and 89 % of control
same,T/C,[9],100 % of control
same,T/C,[10],100 % of control
same,T/C,[11],86 % of control
CCN(CC)C(=O)C1CN2CCc3cc(OC)c(OC)cc3C2CC1OC(C)=O (centres undefined),T/C,"dose: 0.39 mg/kg/injection, schedule: Q01DX009 (ip), vehicle: Klucel (hydroxypropylcellulose) (HPC)",95 % of control
same,T/C,"dose: 0.78 mg/kg/injection, schedule: Q01DX009 (ip), vehicle: Klucel (hydroxypropylcellulose) (HPC)",86 % of control
same,T/C,"dose: 1.56 mg/kg/injection, schedule: Q01DX009 (ip), vehicle: Klucel (hydroxypropylcellulose) (HPC)",96 % of control
same,T/C,"dose: 3.12 mg/kg/injection, schedule: Q01DX009 (ip), vehicle: Klucel (hydroxypropylcellulose) (HPC)",104 % of control
same,T/C,"dose: 6.25 mg/kg/injection, schedule: Q01DX009 (ip), vehicle: Klucel (hydroxypropylcellulose) (HPC)",100 % of control
same,T/C,"dose: 50.0 mg/kg/injection, schedule: Q01DX009 (ip), vehicle: Klucel (hydroxypropylcellulose) (HPC)",89 % of control
same,T/C,"dose: 100.0 mg/kg/injection, schedule: Q01DX009 (ip), vehicle: Klucel (hydroxypropylcellulose) (HPC)",100 % of control
CC(C)(C)n1cc(C(=O)c2ccccc2)cc1-c1ccccc1,T/C,[9],97 % of control
same,T/C,[10],100 % of control
same,T/C,[11],100 % of control
CN(C)C1CC1c1ccccc1 (centres undefined),T/C,"dose: 3.12 mg/kg/injection, schedule: Q01DX009 (ip), vehicle: saline",92 % of control
same,T/C,"dose: 6.25 mg/kg/injection, schedule: Q01DX009 (ip), vehicle: saline",107 % of control
same,T/C,[3],97 % of control
same,T/C,[4],100 % of control
same,T/C,[5],105 % of control
same,T/C,[6],98 % of control
CCN(CC)C(=S)SC(=S)N(CC)CC,T/C,[8],96 % of control
same,T/C,"dose: 200.0 mg/kg/injection, schedule: Q01DX009 (ip), vehicle: saline with Tween-80",103 % of control
same,T/C,"dose: 400.0 mg/kg/injection, schedule: Q01DX009 (ip), vehicle: saline with Tween-80",93 % of control

# — PubChem BioAssay AID192 (DTP/NCI, 2004)
